{"source": "patent US20210387966A1", "about": "“2-AMINO-N-HETEROARYL-NICOTINAMIDES AS NAV1.8 INHIBITORS” (Merck Sharp & Dohme Corp., priority 2018, published 2021)", "data": [{"target": "T1, human Nav1.8 channels (Homo sapiens, UniProt Q9Y5Y9)", "T1 construct": "expressed in transfected cells", "T1 sequence (Q9Y5Y9 whole entry)": "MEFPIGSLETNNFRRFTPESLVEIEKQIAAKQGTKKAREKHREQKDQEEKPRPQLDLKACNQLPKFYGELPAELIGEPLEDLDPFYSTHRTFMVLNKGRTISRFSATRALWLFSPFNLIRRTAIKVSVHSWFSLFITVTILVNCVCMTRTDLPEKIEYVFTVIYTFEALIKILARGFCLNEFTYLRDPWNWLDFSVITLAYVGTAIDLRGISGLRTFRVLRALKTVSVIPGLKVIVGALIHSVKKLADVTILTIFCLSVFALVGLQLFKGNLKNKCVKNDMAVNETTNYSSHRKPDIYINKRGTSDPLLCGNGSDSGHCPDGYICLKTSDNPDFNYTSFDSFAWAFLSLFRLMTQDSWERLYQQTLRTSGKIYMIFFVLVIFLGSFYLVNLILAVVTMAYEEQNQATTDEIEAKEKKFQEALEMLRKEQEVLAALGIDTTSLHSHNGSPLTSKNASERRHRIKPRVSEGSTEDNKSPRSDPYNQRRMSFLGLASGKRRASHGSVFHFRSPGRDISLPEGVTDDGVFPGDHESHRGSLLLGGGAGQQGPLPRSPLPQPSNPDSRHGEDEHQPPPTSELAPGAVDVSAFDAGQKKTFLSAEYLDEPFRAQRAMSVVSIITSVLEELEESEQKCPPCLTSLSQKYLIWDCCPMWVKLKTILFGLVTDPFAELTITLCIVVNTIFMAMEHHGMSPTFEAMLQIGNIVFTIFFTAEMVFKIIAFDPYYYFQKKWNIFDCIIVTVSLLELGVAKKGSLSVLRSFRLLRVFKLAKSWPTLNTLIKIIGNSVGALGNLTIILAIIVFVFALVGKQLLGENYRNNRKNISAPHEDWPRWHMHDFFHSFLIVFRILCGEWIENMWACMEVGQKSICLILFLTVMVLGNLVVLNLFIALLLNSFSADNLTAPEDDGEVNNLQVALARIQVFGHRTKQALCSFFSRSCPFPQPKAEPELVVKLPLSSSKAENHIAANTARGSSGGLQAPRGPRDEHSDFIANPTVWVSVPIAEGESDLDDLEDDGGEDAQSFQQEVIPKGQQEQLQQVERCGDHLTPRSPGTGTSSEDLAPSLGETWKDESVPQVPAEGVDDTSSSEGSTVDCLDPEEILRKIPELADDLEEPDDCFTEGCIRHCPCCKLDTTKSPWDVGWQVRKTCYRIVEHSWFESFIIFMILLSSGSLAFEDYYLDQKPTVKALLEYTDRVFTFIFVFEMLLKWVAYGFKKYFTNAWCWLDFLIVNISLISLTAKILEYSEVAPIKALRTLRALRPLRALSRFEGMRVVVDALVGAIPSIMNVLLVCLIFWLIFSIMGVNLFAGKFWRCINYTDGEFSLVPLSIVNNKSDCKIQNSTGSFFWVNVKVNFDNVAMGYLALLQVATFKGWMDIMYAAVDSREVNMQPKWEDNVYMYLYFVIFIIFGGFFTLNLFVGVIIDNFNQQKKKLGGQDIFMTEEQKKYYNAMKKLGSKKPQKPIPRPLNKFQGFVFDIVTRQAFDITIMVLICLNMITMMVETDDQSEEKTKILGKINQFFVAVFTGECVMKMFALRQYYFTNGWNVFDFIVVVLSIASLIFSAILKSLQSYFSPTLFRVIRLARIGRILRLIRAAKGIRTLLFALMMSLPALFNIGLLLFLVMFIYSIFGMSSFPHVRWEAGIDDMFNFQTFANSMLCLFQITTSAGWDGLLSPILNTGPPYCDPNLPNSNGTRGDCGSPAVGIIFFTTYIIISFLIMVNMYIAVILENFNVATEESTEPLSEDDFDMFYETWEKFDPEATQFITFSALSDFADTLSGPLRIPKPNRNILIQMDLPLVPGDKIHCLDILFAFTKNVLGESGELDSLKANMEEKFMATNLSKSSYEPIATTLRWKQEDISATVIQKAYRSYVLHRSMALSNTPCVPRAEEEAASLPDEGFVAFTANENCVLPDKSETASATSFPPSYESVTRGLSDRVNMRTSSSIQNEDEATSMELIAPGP", "experiment": "Nav1.8 Qube automated patch-clamp assay", "type": "cell-based", "settings": "human Nav1.8 stably expressed in HEK 293 cells; whole-cell voltage clamp, room temperature; resting or inactivated state not specified; read-out: IC50 values (nM) for Examples in the Nav1.8 Qube Assay", "protocol": "Compounds were tested on human Nav1.8 and Nav1.5 channels stably expressed in human embryo kidney (HEK) 293 cells. Sodium current measurements on Qube® were conducted as follows: automated 384-well patch-clamp assays on the Qube® platform (Sophion Biosciences) were used to measure the inhibition of sodium flow through human Nav1.8 and Nav1.5 channels. Whole-cell voltage-clamp recordings were performed in QChips® (Sophion Biosciences) at room temperature. Nav1.8 current measurements on Qube® were obtained as follows: Nav1.8 currents were elicited with a 10 second 1 Hertz (Hz) pulse train from a holding potential of −90 millivolts (mV), delivered to the cells once per minute in the control condition (DMSO only) and after compound addition. The 1 hertz pulse train stimulation consisted of ten test pulses to 10 millivolt (mV) for 20 milliseconds (ms), each of which was followed by a 980 millisecond repolarization to −67 millivolts. At the end of the 10 second pulse train stimulation, a second hyperpolarization step to −100 millivolt (mV) was used to recover Nav1.8 from fast inactivation. The peak currents elicited by the 1st and 10th test pulses were used to determine IC50 values for resting inhibition and inactivated state inhibition. Nav1.5 current measurements on Qube® were obtained as follows: Nav1.5 currents were elicited with a 20 second 3 Hertz pulse train in the control condition (DMSO only) and after compound addition. The pulse train consisted of sixty 20 millisecond test pulses to 0 millivolt from a holding potential of −80 millivolt (mV). The average peak currents elicited by the last 3 test pulses were used to determine IC50 values for Nav1.5 inhibition.\nThe following buffers were used for the Qube® recordings: External buffer for Nav1.8 Qube® recording: 150 NaCl, 2 CaCl2, 5 KCl, 1 Mg Cl2, 10 HEPES, 12 Dextrose; External buffer for Qube® Nav1.5 recording: 120 N-Methyl-D-Glucamine, 40 NaCl, 1 KCl, 2.7 CaCl2, 5 HEPES, 0.5 MgCl2: and Internal buffer for Qube® recording: 120 CsF, 30 CsCl, 10 EGTA, 5 HEPES, 5 NaF, 2 MgCl2.\nFor all Qube® experiments offline analysis was used to determine percent inhibition as a function of drug concentration. IC50 values were determined by fitting to the Hill equation.", "units": {"IC50": "nM"}, "values": [{"compound": "N#Cc1ccc(NC(=O)c2cc(C(F)(F)F)cnc2N2CCC(F)(F)CC2)cn1", "note": "[Example 5, N-(6-cyanopyridin-3-yl)-2-(4,4-difluoropiperidin-1-yl)-5-(trifluoromethyl)nicotinamide]", "IC50": 820}, {"compound": "O=C(Nc1cncc(C(F)(F)F)c1)c1cc(C(F)(F)F)cnc1N1CCCCCC1", "note": "[Example 200, 2-(azepan-1-yl)-5-(trifluoromethyl)-N-[5-(trifluoromethyl)-3-pyridyl]pyridine-3-carboxamide]", "IC50": 9670}, {"compound": "Cc1nc(C2CCC(C)CC2)c(C(=O)Nc2ccnc(S(N)(=O)=O)c2)c(C)c1Cl", "note": "(stereo not drawn) [Example 215, 5-chloro-4,6-dimethyl-2-(4-methylcyclohexyl)-N-(2-sulfamoylpyridin-4-yl)nicotinamide]", "IC50": 6.6}, {"compound": "NS(=O)(=O)c1cc(NC(=O)c2cc(C#CC3CC3)c(C(F)(F)F)nc2N2CCC(F)(F)CC2)ccn1", "note": "[Example 44, 5-(cyclopropylethynyl)-2-(4,4-difluoropiperidin-1-yl)-N-(2-sulfamoylpyridin-4-yl)-6-(trifluoromethyl)nicotinamide]", "IC50": 59}, {"compound": "CC12CCN(c3ncc(C(F)(F)F)cc3C(=O)Nc3ccnc(S(N)(=O)=O)c3)CC1C2(F)F", "note": "(single isomer, unassigned) [Example 62, 2-[(1R,6R or 1S,6S)-7,7-difluoro-6-methyl-3-azabicyclo[4.1.0]heptan-3-yl]-N-(2-sulfamoyl-4-pyridyl)-5-(trifluoromethyl)pyridine-3-carboxamide]", "IC50": 105}, {"compound": "Cc1nc(N2CCC(F)(F)C(C)C2)c(C(=O)Nc2ccnc(S(N)(=O)=O)c2)cc1Cl", "note": "(single isomer, unassigned) [Example 54, (S or R)-5-chloro-2-(4,4-difluoro-3-methylpiperidin-1-yl)-6-methyl-N-(2-sulfamoylpyridin-4-yl)nicotinamide]", "IC50": 2.1}, {"compound": "CCS(=O)(=O)c1cc(NC(=O)c2cc(C(F)(F)F)cnc2N2CCCCCC2)ccn1", "note": "[Example 198, 2-(azepan-1-yl)-N-(2-ethylsulfonyl-4-pyridyl)-5-(trifluoro-methyl)pyridine-3-carboxamide]", "IC50": 425}, {"compound": "NS(=O)(=O)c1cc(NC(=O)c2cccnc2N2CCC(F)(F)CC2)ccn1", "note": "[Example 26, 2-(4,4-difluoropiperidin-1-yl)-N-(2-sulfamoylpyridin-4-yl)nicotinamide]", "IC50": 1860}, {"compound": "N#CC1CCN(c2ncc(C(F)(F)F)cc2C(=O)Nc2ccnc(S(N)(=O)=O)c2)C1", "note": "(single isomer, unassigned) [Example 129, (S or R)-2-(3-cyanopyrrolidin-1-yl)-N-(2-sulfamoylpyridin-4-yl)-5-(trifluoromethyl)nicotinamide]", "IC50": 753}, {"compound": "C[C@H]1CN(c2ncc(C(F)(F)F)cc2C(=O)Nc2ccnc(S(N)(=O)=O)c2)C[C@H](C(F)(F)F)O1", "note": "[Example 103, 2-((2S,6R)-2-methyl-6-(trifluoromethyl)morpholino)-N-(2-sulfamoylpyridin-4-yl)-5-(trifluoromethyl)nicotinamide]", "IC50": 166}, {"compound": "O=C(Nc1cncc(CO)c1)c1cc(C(F)(F)F)cnc1N1CCCCCC1", "note": "[Example 196, 2-(azepan-1-yl)-N-[5-(hydroxymethyl)-3-pyridyl]-5-(trifluoro-methyl)pyridine-3-carboxamide]", "IC50": 5190}, {"compound": "CC1(C)CO[C@@H](C(F)(F)F)CN(c2ncc(C(F)(F)F)cc2C(=O)Nc2ccnc(S(N)(=O)=O)c2)C1", "note": "[Example 106, 2-[(2R)-6,6-dimethyl-2-(trifluoromethyl)-1,4-oxazepan-4-yl]-N-(2-sulfamoyl-4-pyridyl)-5-(trifluoromethyl)pyridine-3-carboxamide]", "IC50": 103}, {"compound": "Cc1nc(C2CCCCCC2)c(C(=O)Nc2ccnc(S(N)(=O)=O)c2)c(C)c1Cl", "note": "[Example 217, 5-chloro-2-cycloheptyl-4,6-dimethyl-N-(2-sulfamoylpyridin-4-yl)nicotinamide]", "IC50": 3.2}, {"compound": "Cc1nc(N2CCCCCC2)c(C(=O)Nc2cc[nH]c(=O)c2)c(C)c1Cl", "note": "[Example 213, 2-(azepan-1-yl)-5-chloro-4,6-dimethyl-N-(2-oxo-1,2-dihydropyridin-4-yl)nicotinamide]", "IC50": 80}, {"compound": "CC1(C)CN(c2ncc(C(F)(F)F)cc2C(=O)Nc2ccnc(S(N)(=O)=O)c2)CC(C(F)(F)F)O1", "note": "(single isomer, unassigned) [Example 135, (R or S)-2-(2,2-dimethyl-6-(trifluoromethyl)morpholino)-N-(2-sulfamoylpyridin-4-yl)-5-(trifluoromethyl)nicotinamide]", "IC50": 57}, {"compound": "Cc1nc(N2CCC(F)(F)CC2)c(C(=O)Nc2ccnc(S(N)(=O)=O)c2)cc1OCC(F)(F)F", "note": "[Example 183]", "IC50": 82}, {"compound": "O=C(Nc1cncc(F)c1)c1cc(C(F)(F)F)cnc1N1CCCCCC1", "note": "[Example 186, 2-(azepan-1-yl)-N-(5-fluoropyridin-3-yl)-5-(trifluoromethyl)nicotinamide]", "IC50": 1290}, {"compound": "C[C@H]1CN(c2ncc(C(F)(F)F)cc2C(=O)Nc2ccnc(S(N)(=O)=O)c2)CCC1(F)F", "note": "(single isomer, unassigned) [Example 47]", "IC50": 3.9}, {"compound": "COc1cncc(NC(=O)c2cc(C(F)(F)F)cnc2N2CCCCCC2)c1", "note": "[Example 194, 2-(azepan-1-yl)-N-(5-methoxy-3-pyridyl)-5-(trifluoromethyl)-pyridine-3-carboxamide]", "IC50": 1550}, {"compound": "NS(=O)(=O)c1cc(NC(=O)c2cc(C(F)(F)F)cnc2N2CC3CC2CC3(F)F)ccn1", "note": "(single isomer, unassigned) [Example 71, 2-[(1R,4R or 1S,4S)-5,5-difluoro-2-azabicyclo[2.2.1]heptan-2-yl]-N-(2-sulfamoyl-4-pyridyl)-5-(trifluoromethyl)pyridine-3-carboxamide]", "IC50": 60}, {"compound": "C[C@@H]1CN(c2ncc(C(F)(F)F)cc2C(=O)Nc2ccnc(S(N)(=O)=O)c2)C[C@H](C)C1(F)F", "note": "[Example 52, 2-[(3S,5R)-4,4-difluoro-3,5-dimethyl-1-piperidyl]-N-(2-sulfamoyl-4-pyridyl)-5-(trifluoromethyl)pyridin-3-carboxamide]", "IC50": 2.8}, {"compound": "C[C@H]1CN(c2ncc(C(F)(F)F)cc2C(=O)Nc2ccnc(S(N)(=O)=O)c2)CC[C@@H]1O", "note": "[Example 77, 2-[(3S,4S)-4-hydroxy-3-methyl-1-piperidyl]-N-(2-sulfamoyl-4-pyridyl)-5-(trifluoromethyl)pyridine-3-carboxamide]", "IC50": 2980}, {"compound": "NS(=O)(=O)c1cc(NC(=O)c2cc(C(F)(F)F)cnc2N2CCCCCC2)ccn1", "note": "[Example 139, 2-(azepan-1-yl)-N-(2-sulfamoyl-4-pyridyl)-5-(trifluoromethyl)pyridine-3-carboxamide]", "IC50": 16}, {"compound": "Cc1nc(N2CCCC(F)(F)CC2)c(C(=O)Nc2ccnc(S(N)(=O)=O)c2)cc1C#N", "note": "[Example 25, 5-cyano-2-(4,4-difluoroazepan-1-yl)-6-methyl-N-(2-sulfamoylpyridin-4-yl)nicotinamide]", "IC50": 5.4}, {"compound": "Cc1nc(N2CCCC(F)(F)CC2)c(C(=O)Nc2cnn(S(C)(=O)=O)c2)cc1Cl", "note": "[Example 31, 5-chloro-2-(4,4-difluoroazepan-1-yl)-6-methyl-N-[1-(methylsulfonyl)-1H-pyrazol-4-yl]pyridine-3-carboxamide]", "IC50": 4.1}, {"compound": "CC1CCCN(c2ncc(C(F)(F)F)cc2C(=O)Nc2ccnc(S(N)(=O)=O)c2)C1", "note": "(single isomer, unassigned) [Example 56, (S or R)-2-(3-methylpiperidin-1-yl)-N-(2-sulfamoylpyridin-4-yl)-5-(trifluoromethyl)nicotinamide]", "IC50": 9.1}, {"compound": "NS(=O)(=O)c1cc(NC(=O)c2cc(C(F)(F)F)cnc2N2CCC(C(F)(F)F)CC2)ccn1", "note": "[Example 82, N-(2-sulfamoyl-4-pyridyl)-5-(trifluoromethyl)-2-[4-(trifluoromethyl)-1-piperidyl]pyridine-3-carboxamide]", "IC50": 54}, {"compound": "CC1CN(c2ncc(C(F)(F)F)cc2C(=O)Nc2ccnc(S(N)(=O)=O)c2)CCC(C(F)(F)F)O1", "note": "(single isomer, unassigned) [Example 122, 2-((2R,7R or 2S,7S)-2-methyl-7-(trifluoromethyl)-1,4-oxazepan-4-yl)-N-(2-sulfamoylpyridin-4-yl)-5-(trifluoromethyl)nicotinamide]", "IC50": 20}, {"compound": "NS(=O)(=O)c1cc(NC(=O)c2cc(C(F)(F)F)cnc2N2CCc3cccc(C(F)(F)F)c3C2)ccn1", "note": "[Example 89, N-(2-sulfamoyl-4-pyridyl)-5-(trifluoromethyl)-2-[8-(trifluoromethyl)-3,4-dihydro-1H-isoquinolin-2-yl]pyridine-3-carboxamide]", "IC50": 275}, {"compound": "NS(=O)(=O)c1cc(NC(=O)c2cc(C(F)(F)F)cnc2N2CCC(Cl)(Cl)CC2)ccn1", "note": "[Example 29, 2-(4,4-Dichloropiperidin-1-yl)-N-(2-sulfamoylpyridin-4-yl)-5-(trifluoromethyl)nicotinamide]", "IC50": 31}]}]}
